This note sets out measurements from PubChem BioAssay (NCI).

“And” between values parts separate entries of the source, which are not always exact repeats. Identical values can stand only once.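 Grown in 96-well plates, cells were treated for 48 hours with each compound at five concentrations. Insufficient inhibition: endpoint recorded as highest concentration tested. GI50 is the concentration that inhibits growth by half. TGI denotes the concentration required for complete inhibition of growth.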 Where only a bound is given, the exact number is not on record here.

Among the test systems are CAKI-1 renal; NCI-H23 lung; SK-MEL-2 melanoma; SNB-75 CNS; NCI/ADR-RES ovarian; U251 CNS; SK-MEL-5 melanoma; COLO 205 colon; SN12C renal; OVCAR-3 ovarian.
Holding throughout (experiment): NCI tumour cell line growth inhibition, 48 h

For `C[C@@H]1CCc2ncc(F)cc2[C@H]2CCCN2c2ccn3ncc(c3n2)C(=O)N1`, the GI50 in the assay with CAKI-1 renal is 23 µM; in the assay with NCI-H23 lung, > 100 µM; in the assay with SK-MEL-2 melanoma it was > 100 µM; in the assay with SNB-75 CNS, 19.6 µM; with NCI/ADR-RES ovarian, > 100 µM; with U251 CNS, > 100 µM. Also, the GI50 with SK-MEL-5 melanoma is > 100 µM; in the assay with COLO 205 colon, 75.9 µM; in the assay with SN12C renal it was 44.1 µM; in the assay with OVCAR-3 ovarian it was 88.6 µM. Moreover, the TGI in the assay on CAKI-1 renal was > 100 µM; in the assay on NCI-H23 lung, > 100 µM; with SK-MEL-2 melanoma it was > 100 µM; with SNB-75 CNS it was 97 µM; in the assay with NCI/ADR-RES ovarian, > 100 µM; with U251 CNS, > 100 µM. For the same compound, the TGI in the assay on SK-MEL-5 melanoma, in the assay with COLO 205 colon, in the assay with SN12C renal and in the assay with OVCAR-3 ovarian was > 100 µM each time.

Consider `O=NNc1ccc(S(=O)(=O)c2ccc3ccccc3c2)cn1`, for which the TGI in the assay with CAKI-1 renal, in the assay with NCI-H23 lung, with SK-MEL-2 melanoma, in the assay on SNB-75 CNS, with NCI/ADR-RES ovarian and in the assay on U251 CNS was > 100 µM throughout. Further, the TGI in the assay on SK-MEL-5 melanoma, in the assay on COLO 205 colon, in the assay on SN12C renal and in the assay with OVCAR-3 ovarian was > 100 µM each time.

`COc1cc2c3cc1Oc1c(OC)c(OC)cc4c1C(Cc1ccc(O)c(c1)Oc1ccc(cc1)CC3N(C)CC2)N(C)CC4` (configuration not stated): the GI50 is 14 µM with CAKI-1 renal; 20.2 µM in the assay with SK-MEL-2 melanoma; 11.3 µM in the assay on SNB-75 CNS; 11.5 µM in the assay with U251 CNS; 11 µM with SK-MEL-5 melanoma; 14.3 µM in the assay with COLO 205 colon. In addition, the GI50 in the assay with SN12C renal is 23.4 µM. Besides, the TGI is 48.5 µM and 40.6 µM with CAKI-1 renal; 31.1 µM and > 100 µM in the assay with NCI-H23 lung; > 100 µM and 36.6 µM in the assay on SK-MEL-2 melanoma; 52.7 µM and 24 µM in the assay on SNB-75 CNS; > 100 µM in the assay with NCI/ADR-RES ovarian; 69.4 µM and 28.9 µM in the assay with U251 CNS. In addition, the TGI is 52 µM and 23.3 µM in the assay with SK-MEL-5 melanoma; > 100 µM and 30.4 µM in the assay on COLO 205 colon; 47.1 µM and > 100 µM in the assay with SN12C renal; 39.1 µM in the assay with OVCAR-3 ovarian.

As for `Clc1ccc(CN2CCCN(Cc3ccc(Cl)cc3)C2c2cc3ccccc3c3ccccc23)cc1`, the TGI in the assay with CAKI-1 renal was > 100 µM; in the assay on NCI-H23 lung, > 100 µM; with SK-MEL-2 melanoma, 44.1 µM; in the assay with SNB-75 CNS, 78.5 µM; in the assay on NCI/ADR-RES ovarian, > 100 µM; with U251 CNS, > 100 µM. In addition, the TGI in the assay with SK-MEL-5 melanoma was 32.7 µM; in the assay on COLO 205 colon it was 40.3 µM; with SN12C renal it was > 100 µM; in the assay with OVCAR-3 ovarian, > 100 µM.

`NC1=NCN(C2OC(CO)C(O)C2O)C(=O)N1` (configuration not stated): the TGI in the assay on CAKI-1 renal was determined as 339 µM; in the assay with NCI-H23 lung, 1500 µM; in the assay on SK-MEL-2 melanoma it was 7.06 µM; with SNB-75 CNS it was 392 µM; in the assay on NCI/ADR-RES ovarian, 2270 µM; in the assay on U251 CNS, 2410 µM. The TGI was determined as 335 µM in the assay on SK-MEL-5 melanoma, 584 µM with COLO 205 colon, 1680 µM in the assay on SN12C renal and 361 µM in the assay on OVCAR-3 ovarian.

In the case of `CCOc1ccc2cc(-c3nn(CC4CCNCC4)c4ncnc(N)c34)ccc2c1`, the GI50 is 19.2 µM in the assay with CAKI-1 renal; 13.4 µM in the assay with NCI-H23 lung; 15.8 µM with SK-MEL-2 melanoma; 5.13 µM in the assay on SNB-75 CNS; 15.6 µM in the assay on NCI/ADR-RES ovarian; 13.7 µM in the assay with U251 CNS. The GI50 in the assay on SK-MEL-5 melanoma was 16.4 µM; in the assay on COLO 205 colon, 12.2 µM; in the assay with SN12C renal it was 11.5 µM; in the assay with OVCAR-3 ovarian, 18.1 µM. Besides, the TGI in the assay on CAKI-1 renal was 60 µM; with NCI-H23 lung it was 31.9 µM; in the assay on SK-MEL-2 melanoma it was 29.8 µM; with SNB-75 CNS, 20.8 µM; with NCI/ADR-RES ovarian, 29.8 µM; in the assay with U251 CNS, 29.5 µM. Moreover, the TGI was 29.9 µM in the assay on SK-MEL-5 melanoma, 27 µM in the assay with COLO 205 colon, 33 µM in the assay on SN12C renal and 43.8 µM in the assay with OVCAR-3 ovarian.

Turning to `COc1cc(/C=C2\SC(N3CCCCC3)=NC2=O)ccc1OCCCCCCOc1ccc(/C=C2\SC(N3CCCCC3)=NC2=O)cc1OC`, the GI50 in the assay on CAKI-1 renal was 22.7 µM; in the assay with NCI-H23 lung, 12.6 µM; in the assay with SK-MEL-2 melanoma, 21.8 µM; with SNB-75 CNS, 2.34 µM; in the assay with NCI/ADR-RES ovarian, 9.11 µM; in the assay with U251 CNS it was 4.61 µM. In addition, the GI50 is 9.35 µM in the assay with SK-MEL-5 melanoma, 19.9 µM with COLO 205 colon, 19 µM with SN12C renal and 6.04 µM with OVCAR-3 ovarian. Further, the TGI in the assay with CAKI-1 renal turned out to be 84.7 µM; in the assay with NCI-H23 lung, 40.9 µM; in the assay with SK-MEL-2 melanoma, 93.9 µM; with SNB-75 CNS, 6.4 µM; with NCI/ADR-RES ovarian, 28.2 µM; in the assay on U251 CNS, 16.1 µM. In addition, the TGI with SK-MEL-5 melanoma was 28.2 µM; in the assay with COLO 205 colon it was > 100 µM; in the assay on SN12C renal it was > 100 µM; in the assay on OVCAR-3 ovarian it was 18.7 µM.

On to `CCOC(=O)c1c(NC(=O)c2ccc(Cl)cc2)sc2c(CN(C)C)c(O)ccc12`, for which the GI50 was 5.57 µM in the assay with CAKI-1 renal; 14.6 µM in the assay on NCI-H23 lung; 6.51 µM in the assay with SK-MEL-2 melanoma; 3.25 µM with SNB-75 CNS; 8.57 µM with NCI/ADR-RES ovarian; 4.85 µM in the assay with U251 CNS. Also, the GI50 was 10.8 µM in the assay with SK-MEL-5 melanoma, 1.87 µM with COLO 205 colon, 14.6 µM in the assay with SN12C renal and 16.2 µM in the assay on OVCAR-3 ovarian. The TGI with CAKI-1 renal was 32.5 µM; with NCI-H23 lung, 47.6 µM; in the assay with SK-MEL-2 melanoma, 41.1 µM; in the assay on SNB-75 CNS it was 19 µM; with NCI/ADR-RES ovarian it was 36.1 µM; in the assay with U251 CNS, 23.5 µM. For the same compound, the TGI was 35.1 µM in the assay on SK-MEL-5 melanoma, 4.1 µM in the assay with COLO 205 colon, > 100 µM with SN12C renal and > 100 µM in the assay on OVCAR-3 ovarian.

`C=C1C[C@@H]2O[C@H]3[C@H]4[C@@H](CC[C@@](C)(OC(=O)CCC)[C@H]42)[C@@H](C)C(=O)O[C@@]3(C)CC[C@H]1OO`: the GI50 with CAKI-1 renal was 4.8 µM; in the assay on NCI-H23 lung it was 16.9 µM; in the assay on SK-MEL-2 melanoma, 52.2 µM; with SNB-75 CNS, 20.5 µM; in the assay with NCI/ADR-RES ovarian, 16.9 µM; in the assay on U251 CNS, 16.5 µM. For the same compound, the GI50 with SK-MEL-5 melanoma was 17.8 µM; in the assay on COLO 205 colon, 21.3 µM; in the assay with SN12C renal, 13.7 µM; in the assay on OVCAR-3 ovarian, 13.9 µM. Further, the TGI is 19.1 µM with CAKI-1 renal; 30.6 µM in the assay on NCI-H23 lung; > 100 µM in the assay on SK-MEL-2 melanoma; 44.6 µM in the assay on SNB-75 CNS; 31.5 µM in the assay with NCI/ADR-RES ovarian; 30.1 µM with U251 CNS. The TGI in the assay on SK-MEL-5 melanoma came out at 32.8 µM; in the assay with COLO 205 colon, 37.4 µM; in the assay on SN12C renal, 26.5 µM; in the assay with OVCAR-3 ovarian, 29.2 µM.

Regarding `COc1ccc2c(c1)C(=O)c1c-2c(OCCN(C)C)nc2cc(OC)c(OC)cc12`, the GI50 with CAKI-1 renal was 3.68 µM; in the assay with NCI-H23 lung it was 9.32 µM; in the assay with SK-MEL-2 melanoma it was > 100 µM; in the assay with SNB-75 CNS, 8.65 µM; with NCI/ADR-RES ovarian, 4.58 µM; in the assay on U251 CNS, 3.08 µM. Besides, the GI50 was 32.1 µM in the assay on SK-MEL-5 melanoma, 11.5 µM in the assay with COLO 205 colon, 2.72 µM with SN12C renal and 2.23 µM in the assay on OVCAR-3 ovarian. Also, the TGI was 31.6 µM in the assay with CAKI-1 renal; 22.9 µM with NCI-H23 lung; > 100 µM in the assay on SK-MEL-2 melanoma; 26.1 µM in the assay with SNB-75 CNS; 42.3 µM in the assay with NCI/ADR-RES ovarian; 19.1 µM in the assay on U251 CNS. The TGI is > 100 µM with SK-MEL-5 melanoma, > 100 µM in the assay with COLO 205 colon, > 100 µM with SN12C renal and 15.1 µM in the assay with OVCAR-3 ovarian.

Regarding `CC(=O)Oc1cc2cnc3c4cc(OC(C)=O)c(OC(C)=O)cc4ccc3c2cc1OC(C)=O`, the GI50 was 0.611 µM in the assay with CAKI-1 renal; 2.54 µM in the assay on NCI-H23 lung; 4.5 µM in the assay with SK-MEL-2 melanoma; 0.25 µM in the assay with SNB-75 CNS; 1.88 µM in the assay with NCI/ADR-RES ovarian; 0.548 µM with U251 CNS. The GI50 in the assay with COLO 205 colon was 4.3 µM; in the assay on SN12C renal it was 2.18 µM; with OVCAR-3 ovarian, 1.01 µM. The TGI in the assay on CAKI-1 renal was > 100 µM; in the assay on NCI-H23 lung, > 100 µM; in the assay with SK-MEL-2 melanoma, 79.9 µM; in the assay on SNB-75 CNS, 7.7 µM; in the assay on NCI/ADR-RES ovarian, > 100 µM; in the assay with U251 CNS it was 10.6 µM. Further, the values for the TGI with COLO 205 colon, with SN12C renal and in the assay with OVCAR-3 ovarian were > 100 µM, > 100 µM and 9.5 µM, respectively.

On to `O=[N+]([O-])/C=C/c1ccc(Cl)cc1[N+](=O)[O-]`, for which the GI50 was 2.16 µM with CAKI-1 renal; 2.86 µM in the assay on NCI-H23 lung; 12.3 µM in the assay with SK-MEL-2 melanoma; 3.79 µM with SNB-75 CNS; 3.18 µM in the assay with NCI/ADR-RES ovarian; 1.95 µM in the assay with U251 CNS. In addition, the GI50 was 8.47 µM in the assay on SK-MEL-5 melanoma, 1.81 µM with COLO 205 colon and 3.08 µM with SN12C renal. Further, the TGI with CAKI-1 renal was 9.09 µM; in the assay on NCI-H23 lung, 10.6 µM; in the assay with SK-MEL-2 melanoma it was 39.7 µM; in the assay on SNB-75 CNS, 15.9 µM; with NCI/ADR-RES ovarian it was 77.7 µM; with U251 CNS, 3.67 µM. Moreover, the TGI amounted to 21.5 µM with SK-MEL-5 melanoma, 3.47 µM in the assay on COLO 205 colon and 20.9 µM in the assay on SN12C renal.

In the case of `O=C(O)CCCCC1CCSS1` (configuration not stated), the TGI in the assay with CAKI-1 renal, in the assay on NCI-H23 lung, with SK-MEL-2 melanoma, in the assay on SNB-75 CNS, in the assay on NCI/ADR-RES ovarian and in the assay with U251 CNS was > 100 µM in each case. Moreover, the TGI with SK-MEL-5 melanoma, with COLO 205 colon and in the assay on OVCAR-3 ovarian was > 100 µM each time.
